Data from the supplement of paper PMC4862054.

What was measured:
Conditions in all cases: incubation time: 72 h
BT-549 [1] = assay: normalised viability (% of control), CellTiter-Blue; higher = more viable cells (100 = DMSO, 0 = benzethonium chloride kill control)
Description: (§1)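 DSRT, CellTiter-Blue viability, 72 h incubation. Signal is normalised to DMSO and benzethonium chloride controls. Value is the normalised response at dose 1.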

HCC1143 [2] = assay: as above
Description: as §1

MDA-MB-468 [3] = assay: as above
Description: as §1

Hs578T [4] = assay: as above
Description: as §1

BT-474 [5] = assay: as above
Description: as §1

HDQ-P1 [6] = assay: as above
Description: as §1

HCC1937 [7] = assay: as above
Description: as §1

MDA-MB-231 [8] = assay: as above
Description: as §1

CAL-120 [9] = assay: as above
Description: as §1

DU-4475 [10] = assay: as above
Description: as §1

SK-BR-3 = assay: as above
Description: as §1

HCC1599 [11] = assay: as above
Description: as §1

MDA-MB-453 [12] = assay: as above
Description: as §1

CAL-148 [13] = assay: as above
Description: as §1

CAL-85-1 [14] = assay: as above
Description: as §1

MFM-223 [15] = assay: as above
Description: as §1

CAL-51 [16] = assay: as above
Description: as §1

MDA-MB-436 [17] = assay: as above
Description: as §1

HDQ-P1 [18] = assay: normalised viability (% of control), CellTiter-Blue; higher = more viable cells (about 100 = DMSO control)
Description: (§2)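 DSRT, CellTiter-Blue viability, 72 h incubation. Signal is normalised to DMSO and benzethonium chloride controls. Value is the normalised response at dose 9.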

DU-4475 [19] = assay: as above
Description: as §2

MDA-MB-453 [20] = assay: as above
Description: as §2

CAL-148 [21] = assay: as above
Description: as §2

CAL-85-1 [22] = assay: as above
Description: as §2

CAL-51 [23] = assay: as above
Description: as §2

BT-549 [24] = assay: normalised response (% of control), CellTiter-Glo; higher = more viable cells (100 = DMSO, 0 = benzethonium chloride kill control)
How it was run: (§3)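 Two readouts were taken after 72 h: CellTox Green fluorescence (485/520 nm) first, then CellTiter-Glo luminescence after 10 min at room temperature. Breast cancer cell lines had been seeded as 20 µl suspension into 384-well plates holding compound at 5 concentrations in 10-fold steps across a compound-specific 10,000-fold range. Each value is a normalised signal at a single concentration, with plates scaled to 0.1 % DMSO (100) and a positive kill control (0).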

HCC1143 [25] = assay: as above
How it was run: as §3

MDA-MB-468 [26] = assay: as above
How it was run: as §3

MCF-10A = assay: as above
How it was run: as §3

Hs578T [27] = assay: as above
How it was run: as §3

BT-474 [28] = assay: as above
How it was run: as §3

HDQ-P1 [29] = assay: as above
How it was run: as §3

HCC1937 [30] = assay: as above
How it was run: as §3

MDA-MB-231 [31] = assay: as above
How it was run: as §3

CAL-120 [32] = assay: as above
How it was run: as §3

DU-4475 [33] = assay: as above
How it was run: as §3

HCC1599 [34] = assay: as above
How it was run: as §3

MDA-MB-453 [35] = assay: as above
How it was run: as §3

CAL-148 [36] = assay: as above
How it was run: as §3

CAL-85-1 [37] = assay: as above
How it was run: as §3

MFM-223 [38] = assay: as above
How it was run: as §3

CAL-51 [39] = assay: as above
How it was run: as §3

MDA-MB-436 [40] = assay: as above
How it was run: as §3

HDQ-P1 [41] = assay: normalised viability (% of control), CellTiter-Blue; higher = more viable cells (about 100 = DMSO control); remark: listed apart in the source
Description: (§4)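 DSRT, CellTiter-Blue viability, 72 h incubation. Signal is normalised to DMSO and benzethonium chloride controls. Value is the normalised response at dose 8.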

DU-4475 [42] = assay: as above; remark: listed apart in the source
Description: as §4

MDA-MB-453 [43] = assay: as above; remark: listed apart in the source
Description: as §4

CAL-148 [44] = assay: as above; remark: listed apart in the source
Description: as §4

CAL-85-1 [45] = assay: as above; remark: listed apart in the source
Description: as §4

CAL-51 [46] = assay: as above; remark: listed apart in the source
Description: as §4

Structure (SMILES) | normalised viability (BT-549 [1]) [%] | normalised viability (HCC1143 [2]) [%] | normalised viability (MDA-MB-468 [3]) [%] | normalised viability (Hs578T [4]) [%] | normalised viability (BT-474 [5]) [%] | normalised viability (HDQ-P1 [6]) [%] | normalised viability (HCC1937 [7]) [%] | normalised viability (MDA-MB-231 [8]) [%] | normalised viability (CAL-120 [9]) [%] | normalised viability (DU-4475 [10]) [%] | normalised viability (SK-BR-3) [%] | normalised viability (HCC1599 [11]) [%] | normalised viability (MDA-MB-453 [12]) [%] | normalised viability (CAL-148 [13]) [%] | normalised viability (CAL-85-1 [14]) [%] | normalised viability (MFM-223 [15]) [%] | normalised viability (CAL-51 [16]) [%] | normalised viability (MDA-MB-436 [17]) [%] | normalised viability (HDQ-P1 [18]) [%] | normalised viability (DU-4475 [19]) [%] | also measured
COc1cc(Nc2ncc3c(n2)-c2ccc(Cl)cc2C(c2c(F)cccc2OC)=NC3)ccc1C(=O)O [MLN8237] (1 nM) | 115 | 96.3 | 105 | 99.4 | 109 | 88.2 | 101 | 109 | 92.1 | 101 | 103 | 114 | 93.8 | 102 | 95.7 | 88.5 | 99.7 | 119 | – | – | –
CO[C@H]1C[C@@H]2CC[C@@H](C)[C@@](O)(O2)C(=O)C(=O)N2CCCC[C@H]2C(=O)O[C@H]([C@H](C)C[C@@H]2CC[C@@H](OC(=O)C(C)(CO)CO)[C@H](OC)C2)CC(=O)[C@H](C)/C=C(\C)[C@@H](O)[C@@H](OC)C(=O)[C@H](C)C[C@H](C)/C=C/C=C/C=C/1C [Temsirolimus] (1000 nM) | – | – | – | – | – | – | – | – | – | – | – | – | – | – | – | – | – | – | 80.6 | 49.6 | normalised viability (MDA-MB-453 [20]): 22.8%; normalised viability (CAL-148 [21]): 36.1%; normalised viability (CAL-85-1 [22]): 57.7%; normalised viability (CAL-51 [23]): 32.6%
CO[C@H]1C[C@@H]2CC[C@@H](C)[C@@](O)(O2)C(=O)C(=O)N2CCCC[C@H]2C(=O)O[C@H]([C@H](C)C[C@@H]2CC[C@@H](OC(=O)C(C)(CO)CO)[C@H](OC)C2)CC(=O)[C@H](C)/C=C(\C)[C@@H](O)[C@@H](OC)C(=O)[C@H](C)C[C@H](C)/C=C/C=C/C=C/1C [Temsirolimus] (0.1 nM) | 92.8 | 94.1 | 93.5 | 86.6 | 95 | 105 | 55.3 | 83.6 | 86.7 | 99.3 | 92.6 | 99.8 | 88.1 | 96.1 | 79.7 | 77.8 | 98.3 | 92.4 | – | – | normalised response (BT-549 [24]): 86.6%; normalised response (HCC1143 [25]): 102%; normalised response (MDA-MB-468 [26]): 88.6%; normalised response (MCF-10A): 104%; normalised response (Hs578T [27]): 88.2%; normalised response (BT-474 [28]): 104%; normalised response (HDQ-P1 [29]): 101%; normalised response (HCC1937 [30]): 91.1%; normalised response (MDA-MB-231 [31]): 101%; normalised response (CAL-120 [32]): 97.5%; normalised response (DU-4475 [33]): 104%; normalised response (HCC1599 [34]): 89.3%; normalised response (MDA-MB-453 [35]): 104%; normalised response (CAL-148 [36]): 99.7%; normalised response (CAL-85-1 [37]): 100%; normalised response (MFM-223 [38]): 103%; normalised response (CAL-51 [39]): 106%; normalised response (MDA-MB-436 [40]): 103%
CN(C)C/C=C/C(=O)Nc1cc2c(Nc3ccc(F)c(Cl)c3)ncnc2cc1O[C@H]1CCOC1 [Afatinib] (10000 nM) | – | – | – | – | – | – | – | – | – | – | – | – | – | – | – | – | – | – | 4.6 | 67.8 | normalised viability (MDA-MB-453 [20]): 14.4%; normalised viability (CAL-148 [21]): 40.7%; normalised viability (CAL-85-1 [22]): 13.6%; normalised viability (CAL-51 [23]): 50.6%
Cc1ccc(F)c(NC(=O)Nc2ccc(-c3cccc4[nH]nc(N)c34)cc2)c1 [Linifanib] (300 nM) | – | – | – | – | – | – | – | – | – | – | – | – | – | – | – | – | – | – | – | – | normalised viability (HDQ-P1 [41]): 111%; normalised viability (DU-4475 [42]): 105%; normalised viability (MDA-MB-453 [43]): 113%; normalised viability (CAL-148 [44]): 104%; normalised viability (CAL-85-1 [45]): 103%; normalised viability (CAL-51 [46]): 101%
